Results published in patent US10449245B2 (priority 2014, dated 2019).
“And” between values parts separate entries of the source, which are not always exact repeats. Identical values can stand only once.

System: HIV-1
Test: HIV transcription as cell-associated unspliced HIV-1 RNA in CD4+ T cells (digital droplet PCR), REDUC Part A
Type: in vivo, human
Conditions: for CA US HIV RNA: individual subjects 1101, 1102, 1103, 1105, 1106, 1107 = c1-c6; for CA US HIV RNA / CA US HIV RNA, Mean: romidepsin 5 mg/m^2 i.v. days 0, 7, 14; for CA US HIV RNA, Mean: mean of subjects
Method: Part A of the clinical study contained three phases. […] Second, a viral reactivation phase of 3 weeks (visit 2 to visit 7) consisting of one cycle of romidepsin infusions at a dosing of 5 mg/m^2 administered intravenously over a 4 hour period. De-escalation down to 2.5 mg/m^2 was planned in case of dose-limiting toxicity was observed. Romidepsin was infused on days 0, 7, and 14. Third, a post-activation phase of ˜9 weeks (visit 8 to visit 11) to assess the effect of romidepsin on the size of latent HIV-1I reservoir.
HIV transcription was measured as copies of cell-associated unspliced HIV-1 RNA/106 CD4+ T cells using digital droplet PCR. CD4+ T-cells were isolated from PBMCs using Miltenyi Biotec negative bead separation kit (CD4 T cell isolation, #130-096-533) as described with LD separation columns, lysed (Lysis buffer from Qiagen DNA/RNA extraction kit), and stored ad −80° C. until extraction of RNA and DNA (Allprep isolation kit, Qiagen). Reverse transcription, amplification and quantitation of cell-associated unspliced HIV RNA from HIV patients was performed as follows. In summary, HIV unspliced RNA was detected on the BioRad QX100 droplet digital platform using a defined primer/probe set and related to total cell input by quantitation of the IPO8 (Importin 8) and TBP (Tata Binding Protein) gene transcription. A mixture of 11.5 μl patient extracted mRNA in nuclease-free dH, 1 μl 10 mM dNTP U1240 (Promega), 0.5 μl 3 μg/μl Random hexamers (Applied Biosystems) and 0.5 μl of 0.5 μg/μl Oligo(dT)12-18 Primer (Invitrogen) was prepared, incubated at 65° C. for 5 min, and then immediately on ice for 5 min. First-strand cDNA production was performed by adding a mixture of 4.0 μl 5× First Strand Buffer (Invitrogen), 1.0 μl 0.1M DTT (Invitrogen), 0.5 μl RNAseOUT RNAse inhibitor (40 U/μl, Invitrogen), 1.0 μl Superscript III Reverse Transcriptase (200 U/μl, Invitrogen) for a total reaction volume of 20 μl and incubating at 42° C. for 45 min, then 80° C. for 15 min in a PCR machine. The reaction was held at 4° C. or on ice until performing the downstream assay. […] To adjust for the total cellular input in each sample, relative copy numbers were normalized to two human endogenous control genes TBP PL (VIC) assay ID: Hs00183533_m1 and IPO8 (FAM) assay ID: Hs00427620_m1 (TaqMan gene expression assay, LifeTechnologies, Denmark). All HIV RT samples were run in six replicates while the reference genes were assayed in duplicate. The PCR reaction mixture was loaded into the BioRad QX-100 emulsification device fractionating each sample into 20,000 nanoliter-sized droplets following the manufacturer's instructions. PCR cycling conditions were as follows: 95° C. for 10 min, followed by 40 cycles of a 30 second denaturation at 95° C. followed by a 59° C. extension for 60 seconds and a final 10 minutes at 98° C. After cycling droplets were subsequently read automatically by the QX100 droplet reader (BioRad) and the data was analyzed with the QuantaSoft™ analysis software (BioRad).

[1] = visit 1 (day −21, pre-treatment)
[2] = visit 2A (day 0, pre-treatment)

With C/C=C1\NC(=O)[C@H]2CSSCC/C=C/[C@H](CC(=O)N[C@H](C(C)C)C(=O)N2)OC(=O)[C@H](C(C)C)NC1=O [romidepsin, (1S,4S,7Z,10S,16E,21R)-7-ethylidene-4,21-bis(1-methylethyl)-2-oxa-12,13-dithia-5,8,20,23-tetraazabicyclo[8.7.6]tricos-16-ene-3,6,9,19,22-pentone] the HIV reactivation (5 mg/m^2 romidepsin, patients on cART) was “successfully able to reactivate HIV in 6 patients”, the “HIV-1 transcription (cell-associated un-spliced HIV-1 RNA), fold range increase from baseline” value (after third infusion, p=0.03, Wilcoxon) was 2.4-5.0 fold and the “cell-associated un-spliced HIV RNA, change” value (as a result of romidepsin infusion) was “significantly increased”. For the same compound, the “CA US HIV RNA” value [1] was 5.4 HIV RNA copies/10^6 CD4+ T cel and 19.7 HIV RNA copies/10^6 CD4+ T cel and 9.7 HIV RNA copies/10^6 CD4+ T cel and 4.8 HIV RNA copies/10^6 CD4+ T cel and 15.9 HIV RNA copies/10^6 CD4+ T cel and 8.7 HIV RNA copies/10^6 CD4+ T cel, the “CA US HIV RNA, Mean” value [1] was 10.7 HIV RNA copies/10^6 CD4+ T cel and the “CA US HIV RNA” value [2] was 13.3 HIV RNA copies/10^6 CD4+ T cel and 16.8 HIV RNA copies/10^6 CD4+ T cel and 7.4 HIV RNA copies/10^6 CD4+ T cel and 14.5 HIV RNA copies/10^6 CD4+ T cel and 4.5 HIV RNA copies/10^6 CD4+ T cel. The “CA US HIV RNA, Mean” value [2] was 11.3 HIV RNA copies/10^6 CD4+ T cel, the “CA US HIV RNA” value (visit 2B (day 0 + 4 h)) was 23.0 HIV RNA copies/10^6 CD4+ T cel and 21.7 HIV RNA copies/10^6 CD4+ T cel and 15.7 HIV RNA copies/10^6 CD4+ T cel and 6.2 HIV RNA copies/10^6 CD4+ T cel and 18.7 HIV RNA copies/10^6 CD4+ T cel and 7.6 HIV RNA copies/10^6 CD4+ T cel and the “CA US HIV RNA, Mean” value (visit 2B (day 0 + 4 h)) was 15.5 HIV RNA copies/10^6 CD4+ T cel. The “CA US HIV RNA” value (visit 3 (day 1)) was 16.7 HIV RNA copies/10^6 CD4+ T cel and 33.8 HIV RNA copies/10^6 CD4+ T cel and 9.5 HIV RNA copies/10^6 CD4+ T cel and 7.3 HIV RNA copies/10^6 CD4+ T cel and 29.4 HIV RNA copies/10^6 CD4+ T cel and 10.3 HIV RNA copies/10^6 CD4+ T cel, the “CA US HIV RNA, Mean” value (visit 3 (day 1)) was 17.8 HIV RNA copies/10^6 CD4+ T cel and the “CA US HIV RNA” value (visit 4 (day 3)) was 26.4 HIV RNA copies/10^6 CD4+ T cel and 36.2 HIV RNA copies/10^6 CD4+ T cel and 7.5 HIV RNA copies/10^6 CD4+ T cel and 6.8 HIV RNA copies/10^6 CD4+ T cel and 12.1 HIV RNA copies/10^6 CD4+ T cel and 6.6 HIV RNA copies/10^6 CD4+ T cel. For the same compound, the “CA US HIV RNA, Mean” value (visit 4 (day 3)) was 15.9 HIV RNA copies/10^6 CD4+ T cel, the “CA US HIV RNA” value (visit 5A (day 7)) was 12.5 HIV RNA copies/10^6 CD4+ T cel and 13.7 HIV RNA copies/10^6 CD4+ T cel and 11.3 HIV RNA copies/10^6 CD4+ T cel and 7.6 HIV RNA copies/10^6 CD4+ T cel and 18.9 HIV RNA copies/10^6 CD4+ T cel and 6.6 HIV RNA copies/10^6 CD4+ T cel and the “CA US HIV RNA, Mean” value (visit 5A (day 7)) was 11.8 HIV RNA copies/10^6 CD4+ T cel. The “CA US HIV RNA” value (visit 5B (day 7 + 4 h)) was 33.7 HIV RNA copies/10^6 CD4+ T cel and 43.3 HIV RNA copies/10^6 CD4+ T cel and 24.8 HIV RNA copies/10^6 CD4+ T cel and 24.0 HIV RNA copies/10^6 CD4+ T cel and 45.2 HIV RNA copies/10^6 CD4+ T cel, the “CA US HIV RNA, Mean” value (visit 5B (day 7 + 4 h)) was 34.2 HIV RNA copies/10^6 CD4+ T cel and the “CA US HIV RNA” value (visit 6 (day 10)) was 21.3 HIV RNA copies/10^6 CD4+ T cel and 29.0 HIV RNA copies/10^6 CD4+ T cel and 10.4 HIV RNA copies/10^6 CD4+ T cel and 9.1 HIV RNA copies/10^6 CD4+ T cel and 14.4 HIV RNA copies/10^6 CD4+ T cel and 7.9 HIV RNA copies/10^6 CD4+ T cel. For the same compound, the “CA US HIV RNA, Mean” value (visit 6 (day 10)) was 15.3 HIV RNA copies/10^6 CD4+ T cel, the “CA US HIV RNA” value (visit 7A (day 14)) was 13.3 HIV RNA copies/10^6 CD4+ T cel and 24.2 HIV RNA copies/10^6 CD4+ T cel and 9.9 HIV RNA copies/10^6 CD4+ T cel and 6.0 HIV RNA copies/10^6 CD4+ T cel and 18.1 HIV RNA copies/10^6 CD4+ T cel and the “CA US HIV RNA, Mean” value (visit 7A (day 14)) was 14.3 HIV RNA copies/10^6 CD4+ T cel. The “CA US HIV RNA” value (visit 7B (day 14 + 4 h)) was 36.5 HIV RNA copies/10^6 CD4+ T cel and 51.9 HIV RNA copies/10^6 CD4+ T cel and 21.0 HIV RNA copies/10^6 CD4+ T cel and 76.0 HIV RNA copies/10^6 CD4+ T cel and 20.5 HIV RNA copies/10^6 CD4+ T cel, the “CA US HIV RNA, Mean” value (visit 7B (day 14 + 4 h)) was 41.2 HIV RNA copies/10^6 CD4+ T cel and the “CA US HIV RNA” value (visit 8 (day 17)) was 17.4 HIV RNA copies/10^6 CD4+ T cel and 17.8 HIV RNA copies/10^6 CD4+ T cel and 4.2 HIV RNA copies/10^6 CD4+ T cel and 14.9 HIV RNA copies/10^6 CD4+ T cel and 8.9 HIV RNA copies/10^6 CD4+ T cel. For the same compound, the “CA US HIV RNA, Mean” value (visit 8 (day 17)) was 12.7 HIV RNA copies/10^6 CD4+ T cel, the “CA US HIV RNA” value (visit 9 (day 21)) was 16.4 HIV RNA copies/10^6 CD4+ T cel and 19.0 HIV RNA copies/10^6 CD4+ T cel and 4.6 HIV RNA copies/10^6 CD4+ T cel and 5.2 HIV RNA copies/10^6 CD4+ T cel and 11.1 HIV RNA copies/10^6 CD4+ T cel and the “CA US HIV RNA, Mean” value (visit 9 (day 21)) was 11.3 HIV RNA copies/10^6 CD4+ T cel. For the same compound, the “CA US HIV RNA” value (visit 10 (day 56)) was 17.9 HIV RNA copies/10^6 CD4+ T cel and 25.0 HIV RNA copies/10^6 CD4+ T cel and 7.6 HIV RNA copies/10^6 CD4+ T cel and 6.2 HIV RNA copies/10^6 CD4+ T cel and 16.8 HIV RNA copies/10^6 CD4+ T cel and 9.3 HIV RNA copies/10^6 CD4+ T cel, the “CA US HIV RNA, Mean” value (visit 10 (day 56)) was 13.8 HIV RNA copies/10^6 CD4+ T cel and the “CA US HIV RNA” value (visit 11 (day 84)) was 22.0 HIV RNA copies/10^6 CD4+ T cel and 32.7 HIV RNA copies/10^6 CD4+ T cel and 11.2 HIV RNA copies/10^6 CD4+ T cel and 8.0 HIV RNA copies/10^6 CD4+ T cel and 35.1 HIV RNA copies/10^6 CD4+ T cel and 12.2 HIV RNA copies/10^6 CD4+ T cel. For the same compound, the “CA US HIV RNA, Mean” value (visit 11 (day 84)) was 20.2 HIV RNA copies/10^6 CD4+ T cel.
